The values below come from patent publication US10975037B2 (priority 2018, dated 2021).

Molecules are shown by their SMILES. Counter-ions that a name gives are not always drawn.

The target of test [1] is human RORγt ligand binding domain (RORγt LBD) (Homo sapiens (Human), UniProt P51449). Put plainly: RORγt ThermoFluor® assay (thermal shift binding). As to conditions: ThermoFluor® Assay, Kd. In short, it runs like this:
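Thermal shift with 0.065 mg/mL RORγt LBD and 60 μM 1,8-ANS in 100 mM Hepes pH 7.0, 10 mM NaCl, 2.5 mM GSH, 0.002% Tween-20.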
(In general: Differential scanning fluorimetry follows unfolding on heating by fluorescence.)

The target of the next test is full-length human RORγt (Homo sapiens (Human), UniProt P51449). As to the kind of experiment: RORγt (full-length human) reporter assay, conditions A or B, HEK293T cells. It is filed as cell-based. As to conditions: for inhibition at 2 µM / inhibition at 3 µM / inhibition at 1 µM: HEK-293T, read-out: RORγt (FL) Reporter Assay A or B, % inhibition; for inhibition at 2 µM: 2 μM compound concentration; for IC50: RORγt (FL) Reporter Assay A or B, IC50, HEK293T cells; for inhibition at 3 µM: 3 μM compound concentration (footnote *); for inhibition at 1 µM: 1 μM compound concentration (footnote ***). In short, it runs like this:
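After 16–20 h, dual firefly/Renilla luciferase luminescence was read. Firefly signal was normalized to DMSO and saturating reference compound, then to Renilla, and fitted for IC50; % inhibition is versus DMSO.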
(A reporter such as luciferase makes a cellular process visible.)

Chain of human RORγt ligand binding domain (RORγt LBD) (P51449 other isoform, or with tags, fused parts or gaps): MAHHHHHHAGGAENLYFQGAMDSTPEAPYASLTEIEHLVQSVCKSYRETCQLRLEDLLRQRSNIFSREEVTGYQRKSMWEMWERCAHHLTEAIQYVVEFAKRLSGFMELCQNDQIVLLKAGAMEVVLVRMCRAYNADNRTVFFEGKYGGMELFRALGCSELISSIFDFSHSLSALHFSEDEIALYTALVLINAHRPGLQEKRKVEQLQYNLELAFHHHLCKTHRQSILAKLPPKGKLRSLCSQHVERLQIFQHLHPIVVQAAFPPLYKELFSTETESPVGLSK
Chain of full-length human RORγt (P51449 other isoform, or with tags, fused parts or gaps): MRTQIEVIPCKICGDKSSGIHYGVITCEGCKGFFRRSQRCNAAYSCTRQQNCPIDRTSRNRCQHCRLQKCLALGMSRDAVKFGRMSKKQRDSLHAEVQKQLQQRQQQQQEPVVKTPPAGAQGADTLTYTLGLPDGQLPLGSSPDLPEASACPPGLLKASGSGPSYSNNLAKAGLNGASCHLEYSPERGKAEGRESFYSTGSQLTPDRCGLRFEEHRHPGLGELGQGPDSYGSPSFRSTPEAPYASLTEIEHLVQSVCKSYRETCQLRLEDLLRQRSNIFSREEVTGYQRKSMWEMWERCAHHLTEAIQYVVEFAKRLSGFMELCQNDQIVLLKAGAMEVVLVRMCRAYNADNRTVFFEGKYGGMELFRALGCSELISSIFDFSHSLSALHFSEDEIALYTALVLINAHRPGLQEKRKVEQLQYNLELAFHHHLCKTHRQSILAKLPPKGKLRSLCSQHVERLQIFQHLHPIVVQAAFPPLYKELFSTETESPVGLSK

For `CCn1nc(C(=O)NC[C@]2(O)CC[C@@H](S(C)(=O)=O)CC2)c(Cl)c1-c1c(F)cc(C[C@H](C)C(F)(F)F)cc1F` (single isomer, unassigned) [Example 198, 4-Chloro-5-(2,6-difluoro-4-((S*)-3,3,3-trifluoro-2-methylpropyl)phenyl)-1-ethyl-N-(((1s,4R)-1-hydroxy-4-(methylsulfonyl)cyclohexyl)methyl)-1H-pyrazole-3-carboxamide], the Kd in test [1] came out at 16 nM. In addition, on full-length human RORγt, the inhibition at 2 µM came to 69% and the IC50 was found to be 79 nM.

`CCn1nc(C(=O)NC[C@]2(O)CC[C@@H](S(C)(=O)=O)CC2)c(Cl)c1-c1c(F)cc(C[C@@H](C)C(F)(F)F)cc1F` (single isomer, unassigned) [Example 199, 4-Chloro-5-(2,6-difluoro-4-((R*)-3,3,3-trifluoro-2-methylpropyl)phenyl)-1-ethyl-N-(((1s,4S)-1-hydroxy-4-(methylsulfonyl)cyclohexyl)methyl)-1H-pyrazole-3-carboxamide]: the equilibrium dissociation constant (Kd) in test [1] worked out at 14 nM. At full-length human RORγt, the inhibition at 2 µM worked out at 75% and inhibition was half-maximal at 58 nM (IC50).

In the case of `CCn1nc(C(=O)NC[C@]2(O)CC[C@@H](S(C)(=O)=O)C[C@H]2N)c(Cl)c1-c1ccc(CC(C)(C)C(F)(F)F)cc1OC(F)F` (stereo in doubt) [Example 5, N-(((1RS,2RS,4RS)-2-Amino-1-hydroxy-4-(methylsulfonyl)cyclohexyl)methyl)-4-chloro-5-(2-(difluoromethoxy)-4-(3,3,3-trifluoro-2,2-dimethylpropyl)phenyl)-1-ethyl-1H-pyrazole-3-carboxamide Hydrobromide], in test [1], the Kd is 1.7 nM. At full-length human RORγt, the inhibition at 3 µM was found to be 103% and the IC50 stood at 120 nM.

Regarding `CCn1nc(C(=O)NC[C@@]2(O)CC[C@H](S(C)(=O)=O)C[C@@H]2N)c(Cl)c1-c1ccc(CC(C)(C)C(F)(F)F)cc1OC(F)F` (stereo in doubt) [Example 7, N-(((1S*,2S*,4S*)-2-Amino-1-hydroxy-4-(methylsulfonyl)cyclohexyl)methyl)-4-chloro-5-(2-(difluoromethoxy)-4-(3,3,3-trifluoro-2,2-dimethylpropyl)phenyl)-1-ethyl-1H-pyrazole-3-carboxamide hydrobromide], the Kd in test [1] came out at 2.1 nM. Further, at full-length human RORγt, the inhibition at 1 µM is 103% and half-maximal inhibition (IC50) was put at 68 nM.

Regarding `CCn1nc(C(=O)NC[C@H]2CC[C@H](S(C)(=O)=O)CN2)c(Cl)c1-c1ccc(CC(C)(C)C(F)(F)F)cc1OC(F)F` (stereo in doubt) [Example 8, 4-Chloro-5-(2-(difluoromethoxy)-4-(3,3,3-trifluoro-2,2-dimethylpropyl)phenyl)-1-ethyl-N-(((2RS,5SR)-5-(methylsulfonyl)piperidin-2-yl)methyl)-1H-pyrazole-3-carboxamide Hydrobromide], the dissociation constant (Kd) in test [1] stood at 0.73 nM. Further, on full-length human RORγt, the inhibition at 3 µM came out at 92% and the IC50 amounted to 13 nM.

As for `CCn1nc(C(=O)NC[C@H]2CC[C@H](S(C)(=O)=O)CN2)c(Cl)c1-c1ccc(CC(C)(C)C(F)(F)F)cc1OC(F)F` (stereo in doubt) [Example 9, 4-Chloro-5-(2-(difluoromethoxy)-4-(3,3,3-trifluoro-2,2-dimethylpropyl)phenyl)-1-ethyl-N-(((2R*,5S*)-5-(methylsulfonyl)piperidin-2-yl)methyl)-1H-pyrazole-3-carboxamide hydrobromide], the Kd in test [1] was 1.6 nM. For the same compound, on full-length human RORγt, the inhibition at 1 µM was 104% and the IC50 was 9.1 nM.

Regarding `CCn1nc(C(=O)NC[C@@H]2CC[C@@H](S(C)(=O)=O)CN2)c(Cl)c1-c1ccc(CC(C)(C)C(F)(F)F)cc1OC(F)F` (stereo in doubt) [Example 10, 4-Chloro-5-(2-(difluoromethoxy)-4-(3,3,3-trifluoro-2,2-dimethylpropyl)phenyl)-1-ethyl-N-(((2S*,5R*)-5-(methylsulfonyl)piperidin-2-yl)methyl)-1H-pyrazole-3-carboxamide hydrobromide], the Kd in test [1] came out at 2.6 nM. Also, at full-length human RORγt, the inhibition at 3 µM came out at 103% and the IC50 amounted to 25 nM.

On to `CCn1nc(C(=O)NC[C@H]2CC[C@@H](S(C)(=O)=O)CN2)c(Cl)c1-c1ccc(CC(C)(C)C(F)(F)F)cc1OC(F)F` (stereo in doubt) [Example 11, 4-Chloro-5-(2-(difluoromethoxy)-4-(3,3,3-trifluoro-2,2-dimethylpropyl)phenyl)-1-ethyl-N-(((2RS,5RS)-5-(methylsulfonyl)piperidin-2-yl)methyl)-1H-pyrazole-3-carboxamide Hydrobromide], for which, in test [1], the Kd was found to be 35 nM. Moreover, at full-length human RORγt, the inhibition at 3 µM came out at 100% and the concentration for half-maximal inhibition (IC50) is 190 nM.

Regarding `CCn1nc(C(=O)NC[C@@H]2CC[C@H](S(C)(=O)=O)CN2)c(Cl)c1-c1ccc(CC(C)(C)C(F)(F)F)cc1OC(F)F` (stereo in doubt) [Example 12, 4-Chloro-5-(2-(difluoromethoxy)-4-(3,3,3-trifluoro-2,2-dimethylpropyl)phenyl)-1-ethyl-N-(((2S*,5S*)-5-(methylsulfonyl)piperidin-2-yl)methyl)-1H-pyrazole-3-carboxamide], in test [1], the Kd was 74 nM. For the same compound, on full-length human RORγt, the inhibition at 3 µM came to 92% and half-maximal inhibition (IC50) required 91 nM.

For the compound `CCn1nc(C(=O)NC[C@H]2CC[C@@H](S(C)(=O)=O)CN2)c(Cl)c1-c1ccc(CC(C)(C)C(F)(F)F)cc1OC(F)F` (stereo in doubt) [Example 13, 4-Chloro-5-(2-(difluoromethoxy)-4-(3,3,3-trifluoro-2,2-dimethylpropyl)phenyl)-1-ethyl-N-(((2R*,5R*)-5-(methylsulfonyl)piperidin-2-yl)methyl)-1H-pyrazole-3-carboxamide], the Kd in test [1] was determined as 110 nM. In addition, on full-length human RORγt, the inhibition at 3 µM was 90% and the IC50 came out at 190 nM.

In the case of `CCn1nc(C(=O)NC[C@@]2(O)CC[C@H](S(C)(=O)=O)C[C@@H]2O)c(Cl)c1-c1ccc(C[C@H](C)C(F)(F)F)cc1OC(F)F` (stereo in doubt) [Example 52, 4-Chloro-5-(2-(difluoromethoxy)-4-((S*)-3,3,3-trifluoro-2-methylpropyl)phenyl)-N-(((1S*,2S*,4S*)-1,2-dihydroxy-4-(methylsulfonyl)cyclohexyl)methyl)-1-ethyl-1H-pyrazole-3-carboxamide], in test [1], the Kd came out at 3.5 nM. Besides, on full-length human RORγt, the inhibition at 3 µM was 103% and the IC50 was found to be 26 nM.

`CCn1nc(C(=O)NC[C@@]2(O)CC[C@H](S(C)(=O)=O)C[C@@H]2O)c(C)c1-c1ccc(C[C@H](C)C(F)(F)F)cc1OC(F)F` (stereo in doubt) [Example 57, 5-(2-(Difluoromethoxy)-4-((S*)-3,3,3-trifluoro-2-methylpropyl)phenyl)-N-(((1S*,2S*,4S*)-1,2-dihydroxy-4-(methylsulfonyl)cyclohexyl)methyl)-1-ethyl-4-methyl-1H-pyrazole-3-carboxamide]: the Kd in test [1] came out at 5.7 nM. Further, at full-length human RORγt, the inhibition at 3 µM was found to be 95% and the midpoint of inhibition, the IC50, lay at 35 nM.

For the compound `CCn1nc(C(=O)NC[C@@H]2CC[C@@H](S(C)(=O)=O)C[NH+]2CC(=O)ON)c(Cl)c1-c1ccc(CC(C)(C)C(F)(F)F)cc1OC(F)F` (stereo in doubt) [Example 63, N-(((2S*,5R*)-1-(2-(Aminooxy)-2-oxoethyl)-5-(methylsulfonyl)piperidin-2-yl)methyl)-4-chloro-5-(2-(difluoromethoxy)-4-(3,3,3-trifluoro-2,2-dimethylpropyl)phenyl)-1-ethyl-1H-pyrazole-3-carboxamide Trifluoroacetic Acid Salt], in test [1], the Kd is 1 nM. On full-length human RORγt, the inhibition at 3 µM worked out at 109% and the midpoint of inhibition, the IC50, lay at 8 nM.

As for `CCn1nc(C(=O)NC[C@H]2CC[C@H](S(C)(=O)=O)C[NH+]2CC(=O)ON)c(Cl)c1-c1ccc(CC(C)(C)C(F)(F)F)cc1OC(F)F` (stereo in doubt) [Example 64, N-(((2R*,5S*)-1-(2-(Aminooxy)-2-oxoethyl)-5-(methylsulfonyl)piperidin-2-yl)methyl)-4-chloro-5-(2-(difluoromethoxy)-4-(3,3,3-trifluoro-2,2-dimethylpropyl)phenyl)-1-ethyl-1H-pyrazole-3-carboxamide Trifluoroacetic Acid Salt], the Kd in test [1] amounted to 3.2 nM. Also, on full-length human RORγt, the inhibition at 3 µM was determined as 119% and the IC50 was found to be 51 nM.

As to `CCn1nc(C(=O)NC[C@]2(O)CC[C@@H](S(C)(=O)=O)C[C@H]2O)c(Cl)c1-c1ccc(C[C@@H](C)C(F)(F)F)cc1OC(F)F` (stereo in doubt) [Example 137, 4-Chloro-5-(2-(difluoromethoxy)-4-((R*)-3,3,3-trifluoro-2-methylpropyl)phenyl)-N-(((1R*,2R*,4R*)-1,2-dihydroxy-4-(methylsulfonyl)cyclohexyl)methyl)-1-ethyl-1H-pyrazole-3-carboxamide], the Kd in test [1] was found to be 2 nM. Further, on full-length human RORγt, the inhibition at 3 µM was 102% and the IC50 came to 4.8 nM.

As to `CCn1nc(C(=O)NC[C@@]2(O)CC[C@H](S(C)(=O)=O)C[C@@H]2O)c(Cl)c1-c1ccc(C[C@@H](C)C(F)(F)F)cc1OC(F)F` (stereo in doubt) [Example 138, 4-Chloro-5-(2-(difluoromethoxy)-4-((R*)-3,3,3-trifluoro-2-methylpropyl)phenyl)-N-(((1S*,2S*,4S*)-1,2-dihydroxy-4-(methylsulfonyl)cyclohexyl)methyl)-1-ethyl-1H-pyrazole-3-carboxamide], the Kd in test [1] is 3.7 nM. At full-length human RORγt, the inhibition at 1 µM amounted to 101% and the IC50 was 12 nM.

What is called Kd is the concentration at which binding is half-saturated. A word on the inhibition: it is the drop in the measured response relative to a control, in per cent. A word on the IC50: it is the concentration that gives 50% inhibition. Low values mean inhibition by little substance, high ones a need for much substance.
